Reference: ChEMBL document CHEMBL4354827, “Discovery of Novel, Potent, Brain-Permeable, and Orally Efficacious Positive Allosteric Modulator of α7 Nicotinic Acetylcholine Receptor [4-(5-(4-Chlorophenyl)-4-methyl-2-propionylthiophen-3-yl)benzenesulfonamide]: Structure-Activity Relationship and Preclinical Characterization” (J Med Chem, 2020)

Columns and labels:
[1] = Drug metabolism in monkey liver microsomes assessed as metabolic rate at 1 uM preincubated for 5 mins followed by NADPH addition after 30 mins by LC-MS/MS analysis; type: ADME, Macaca mulatta, Microsome; settings: rhesus monkey, 0.5 h
[2] = Metabolic stability in mouse liver microsomes assessed as compound remaining at 1 uM preincubated for 5 mins followed by NADPH addition and measured after 30 mins by LC-MS/MS analysis; type: ADME, Microsome; settings: read-out: Stability
[3] = Protein binding in dog plasma assessed as unbound fraction at 5 uM incubated for 16 hrs under shaking condition by LC/MS/MS based rapid equilibrium dialysis method; type: ADME, cell-free, Canis lupus familiaris
[4] = AUC (0 to 144 hrs) in Wistar rat at 10 mg/kg, po after 0.25 to 144 hrs by LC-MS/MS analysis; type: ADME, organism-based; parameters: dose 10 mg/kg, time < 144 hr, route oral; settings: in vivo
[5] = AUClast in BALB/c mouse at 1 mg/kg, iv after 0.083 to 144 hrs by LC-MS/MS analysis; type: ADME, organism-based; parameters: dose 1 mg/kg, time upper 144 hr, time lower 0.083 hr, route intravenous; settings: in vivo
[6] = AUClast in BALB/c mouse at 10 mg/kg, po after 0.25 to 144 hrs by LC-MS/MS analysis; type: ADME, organism-based; parameters: dose 10 mg/kg, time upper 144 hr, time lower 0.25 hr, route oral; settings: in vivo
[7] = Half life in Wistar rat at 10 mg/kg, po after 0.25 to 144 hrs by LC-MS/MS analysis; type: ADME, organism-based; settings: in vivo
[8] = Clearance in Wistar rat at 1 mg/kg, iv after 0.083 to 144 hrs by LC-MS/MS analysis; type: ADME, organism-based; settings: in vivo
[9] = Volume of distribution at steady state in Wistar rat at 1 mg/kg, iv after 0.083 to 144 hrs by LC-MS/MS analysis; type: ADME, organism-based; settings: in vivo, read-out: Vdss
[10] = Oral bioavailability in Wistar rat at 10 mg/kg after 0.25 to 144 hrs by LC-MS/MS analysis; type: ADME, organism-based; settings: in vivo
[11] = Oral bioavailability in BALB/c mouse at 10 mg/kg after 0.25 to 144 hrs by LC-MS/MS analysis; type: ADME, organism-based; settings: in vivo
[12] = Drug concentration in Wistar rat brain at 10 mg/kg, po after 8 hrs by LC-MS/MS analysis; type: ADME, organism-based; settings: read-out: Drug uptake
[13] = Unbound brain-to-plasma concentration ratio in Wistar rat at 10 mg/kg, po after 1 hr by LC-MS/MS analysis; type: ADME, organism-based; settings: read-out: K(p,uu,brain)
[14] = Tmax in Wistar rat brain at 10 mg/kg, po after 1 to 144 hrs by LC-MS/MS analysis; type: ADME, organism-based
Cytochrome P450 2E1 = Cytochrome P450 2E1 (Homo sapiens, UniProt P05181); assay: Inhibition of CYP2E1 (unknown origin) up to 10 uM; type: ADME
Cytochrome P450 2E1, sequence (P05181 whole entry): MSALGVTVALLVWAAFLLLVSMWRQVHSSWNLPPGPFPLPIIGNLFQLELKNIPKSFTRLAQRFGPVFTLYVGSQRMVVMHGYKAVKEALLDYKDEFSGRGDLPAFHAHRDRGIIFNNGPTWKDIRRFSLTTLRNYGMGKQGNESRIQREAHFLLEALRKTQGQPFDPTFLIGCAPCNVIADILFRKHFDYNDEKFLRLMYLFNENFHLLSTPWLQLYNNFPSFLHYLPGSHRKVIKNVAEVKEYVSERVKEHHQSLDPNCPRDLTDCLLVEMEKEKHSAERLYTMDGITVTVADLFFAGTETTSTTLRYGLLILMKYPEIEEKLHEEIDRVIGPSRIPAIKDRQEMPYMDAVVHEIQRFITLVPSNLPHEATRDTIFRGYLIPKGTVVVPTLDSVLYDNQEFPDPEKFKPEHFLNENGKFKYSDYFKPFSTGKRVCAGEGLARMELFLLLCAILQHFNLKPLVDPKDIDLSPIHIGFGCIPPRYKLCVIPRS

Rattus norvegicus [15] = assay: Memory enhancement effect in time-delay induced Wistar rat model of amnesia assessed as increase in novel object discrimination index at 3 mg/kg, po administered as single dose and measured on day 9 by novel object recognition test (reference value: 0.03); type: functional
Rattus norvegicus [16] = assay: Memory enhancement effect in scopolamine-induced Wistar rat model of amnesia assessed as exploration time for familiar object in retention trial at 0.05 mg/kg, po administered as single dose and measured on day 9 by novel object recognition test (reference value: 8.59 sec); type: functional
Rattus norvegicus [17] = assay: Memory enhancement effect in scopolamine-induced Wistar rat model of amnesia assessed as increase in exploration time for novel object in retention trial at 0.05 mg/kg, po administered as single dose and measured on day 9 by novel object recognition test (reference value: 12.09 sec); type: functional
Rattus norvegicus [18] = assay: Memory enhancement effect in scopolamine-induced Wistar rat model of amnesia assessed as exploration time for familiar object in retention trial at 0.5 mg/kg, po administered as single dose and measured on day 9 by novel object recognition test (reference value: 8.59 sec); type: functional
Rattus norvegicus [19] = assay: Memory enhancement effect in time-delay induced Wistar rat model of amnesia assessed as exploration time for object2 at 3 mg/kg, po administered as single dose after acquisition trial by novel object recognition test (reference value: 21.07 sec); type: functional
Rattus norvegicus [20] = assay: Memory enhancement effect in time-delay induced Wistar rat model of amnesia assessed as increase in novel object discrimination at 3 mg/kg, po administered as single dose after acquisition trial by novel object recognition test (reference value: 0.08); type: functional
Rattus norvegicus [21] = assay: Memory enhancement effect in time-delay induced Wistar rat model of amnesia assessed as exploration time for object2 in acquisition trial at 0.05 mg/kg, po for 7 days and measured on day 8 by novel object recognition test (reference value: 11.76 sec); type: functional
Rattus norvegicus [22] = assay: Memory enhancement effect in time-delay induced Wistar rat model of amnesia assessed as exploration time for object2 in acquisition trial at 0.15 mg/kg, po for 7 days and measured on day 8 by novel object recognition test (reference value: 11.76 sec); type: functional
Rattus norvegicus [23] = assay: Memory enhancement effect in scopolamine-induced Wistar rat model of amnesia assessed as exploration time for object1 in acquisition trial at 0.05 mg/kg, po for 7 days and measured on day 8 by novel object recognition test (reference value: 16.11 sec); type: functional
Rattus norvegicus [24] = assay: Memory enhancement effect in scopolamine-induced Wistar rat model of amnesia assessed as exploration time for familiar object in retention trial at 0.05 mg/kg, po for 7 days and measured on day 8 by novel object recognition test (reference value: 8.59 sec); type: functional
Rattus norvegicus [25] = assay: Memory enhancement effect in scopolamine-induced Wistar rat model of amnesia assessed as exploration time for object1 in acquisition trial at 0.15 mg/kg, po for 7 days and measured on day 8 by novel object recognition test (reference value: 16.11 sec); type: functional
Rattus norvegicus [26] = assay: Improvement in social recognition time delay-induced Sprague-Dawley rat model of amnesia assessed as reduction in recognition index at 1 mg/kg, po administered as single dose prior to 1 hr training and measured after 30 mins (reference value: 1); type: functional
Rattus norvegicus [27] = assay: Improvement in social recognition scopolamine-induced Sprague-Dawley rat model of amnesia assessed as reduction in recognition index at 1 mg/kg, po administered as single dose prior to 1 hr training and measured after 30 mins (reference value: 0.9); type: functional
Rattus norvegicus [28] = assay: Improvement in social recognition time delay-induced Sprague-Dawley rat model of amnesia assessed as increase in reduction in social investigation time at 0.05 mg/kg, po for 7 days measured on day 9 (reference value: -0.5%); type: functional; parameters: scale not given: the % may be the effect or the level left
[29] = biological target: Neuronal acetylcholine receptor subunit alpha-7 (Homo sapiens, UniProt P36544); assay: Positive allosteric modulatory activity against alpha7 nAChR in human IMR-32 cells assessed as potentiation of PNU-282987-induced Ca2+ […] at by FLIPR assay; type: cell-based
Neuronal acetylcholine receptor subunit alpha-7, sequence (P36544 whole entry): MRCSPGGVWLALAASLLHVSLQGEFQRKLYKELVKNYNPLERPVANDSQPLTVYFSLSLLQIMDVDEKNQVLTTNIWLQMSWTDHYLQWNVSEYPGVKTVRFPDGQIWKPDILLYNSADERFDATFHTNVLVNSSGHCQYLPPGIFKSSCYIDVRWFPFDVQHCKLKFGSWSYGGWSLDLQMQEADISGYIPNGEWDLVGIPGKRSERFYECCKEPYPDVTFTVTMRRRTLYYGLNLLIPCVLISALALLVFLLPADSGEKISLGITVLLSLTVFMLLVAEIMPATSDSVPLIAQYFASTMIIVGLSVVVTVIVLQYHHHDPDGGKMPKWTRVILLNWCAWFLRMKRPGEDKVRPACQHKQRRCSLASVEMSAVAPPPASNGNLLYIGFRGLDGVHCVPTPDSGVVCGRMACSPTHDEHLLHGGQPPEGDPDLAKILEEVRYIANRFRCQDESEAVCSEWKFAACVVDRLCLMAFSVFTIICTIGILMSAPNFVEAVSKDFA

## CCC(=O)c1sc(-c2ccc(Cl)cc2)c(C)c1-c1ccc(S(N)(=O)=O)cc1
[1]
  Drug metabolism: 0.03 nmol/min/mg
[2]
  remaining at 0.5 h, 1 µM: 96%
[3]
  fraction unbound at 16 h, 5 µM: 0.0031
[4]
  AUC(0-t) at 144 h: 201 µM·h
[5]
  AUC(0-t): 11 µM·h
[6]
  AUC(0-t): 63 µM·h
[7]
  half-life: 45 h
[8]
  clearance: 1.3 mL/min/kg
[9]
  Vd: 4.3 L/kg
[10]
  bioavailability: 74%
[11]
  bioavailability: 57%
[12]
  concentration at 8 h: 6.39 µM
[13]
  Kp uu at 1 h: 0.56
[14]
  Tmax: 4 h
Cytochrome P450 2E1
  inhibition (INH): Not Active
Rattus norvegicus [15]
  Activity_index: 0.48
Rattus norvegicus [16]
  Time: 8.03 s
Rattus norvegicus [17]
  Time: 14.65 s
Rattus norvegicus [18]
  Time: 6.63 s
Rattus norvegicus [19]
  Time: 21.46 s
Rattus norvegicus [20]
  Activity_index: 0.5
Rattus norvegicus [21]
  Time: 15.41 s
Rattus norvegicus [22]
  Time: 13.58 s
Rattus norvegicus [23]
  Time: 16.07 s
Rattus norvegicus [24]
  Time: 8.03 s
Rattus norvegicus [25]
  Time: 14.08 s
Rattus norvegicus [26]
  Activity_index: 0.68
Rattus norvegicus [27]
  Activity_index: 0.52
Rattus norvegicus [28]
  Activity: 18.97%
[29]
  EC50: 324 nM
